In PubChem BioAssay AID1963848 (Molecular Pharmacology Branch, DTP, NCI, 2024):

Tested on: 379773-124-R-J2-PDC spheroid viability
Assay: Anticancer human tumor 379773-124-R-J2-PDC patient-derived endometrial carcinoma cell line growth inhibition [POLQ]
Conditions: spheroids with HUVEC and MSC; for IC50: curve of first compound; for viability, T/C: stronger effect = lower value
Summary of the method: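 PDC + HUVEC + MSC complex spheroids; POLQ inhibitors ± partner drugs; top conc. at/near clinical Cmax, else 10 microM (SN-38 1 microM), half-log dilutions; 37 degrees C, 5% CO2.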

[1] = second compound 0.0316 µM, first compound 0.0316 µM
[2] = second compound 0.0316 µM, first compound 0.1 µM
[3] = second compound 0.1 µM, first compound 0.0316 µM
[4] = second compound 0.1 µM, first compound 0.1 µM
[5] = second compound 0.316 µM, first compound 0.0316 µM
[6] = second compound 0.316 µM, first compound 0.1 µM
[7] = second compound 1 µM, first compound 0.0316 µM
[8] = second compound 1 µM, first compound 0.1 µM
[9] = second compound 3.16 µM, first compound 0.0316 µM
[10] = second compound 3.16 µM, first compound 0.1 µM
[11] = second compound 10 µM, first compound 0.0316 µM
[12] = second compound 10 µM, first compound 0.1 µM
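Note: spheroids exposed to drugs for seven days before readout.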
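Throughout, for viability, T/C: percent viability relative to DMSO vehicle control taken as 100%.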

Cn1ncnc1[C@H]1c2n[nH]c(=O)c3cc(F)cc(c23)N[C@@H]1c1ccc(F)cc1 + Cc1cccc(N(C)C(=O)C2C(O)CCN2c2nc(C)cc(C(F)(F)F)c2C#N)c1 was tested, and the IC50 (second compound 0.0316 µM) was greater than 100 nM, the IC50 (second compound 0.1 µM) was greater than 100 nM and the IC50 (second compound 0.316 µM) was greater than 100 nM. It also gave an IC50 (second compound 1 µM) greater than 100 nM, an IC50 (second compound 3.16 µM) of 90.1 nM and an IC50 (second compound 10 µM) greater than 100 nM. It also gave a viability, T/C (second compound 0.0316 µM, first compound 0.000316 µM) of 79.1%, a viability, T/C (second compound 0.0316 µM, first compound 0.001 µM) of 78.9% and a viability, T/C (second compound 0.0316 µM, first compound 0.00316 µM) of 74.5%. It also gave a viability, T/C (second compound 0.0316 µM, first compound 0.01 µM) of 89.8%, a viability, T/C [1] of 67.8% and a viability, T/C [2] of 60.8%. It also gave a viability, T/C (second compound 0.1 µM, first compound 0.000316 µM) of 86.3%, a viability, T/C (second compound 0.1 µM, first compound 0.001 µM) of 77.2% and a viability, T/C (second compound 0.1 µM, first compound 0.00316 µM) of 90.2%. The viability, T/C (second compound 0.1 µM, first compound 0.01 µM) was 82.8%, the viability, T/C [3] was 61.5% and the viability, T/C [4] was 55.6%. The viability, T/C (second compound 0.316 µM, first compound 0.000316 µM) was 85.7%, the viability, T/C (second compound 0.316 µM, first compound 0.001 µM) was 79.7% and the viability, T/C (second compound 0.316 µM, first compound 0.00316 µM) was 74.2%. For the same compound, the viability, T/C (second compound 0.316 µM, first compound 0.01 µM) was 73.6%, the viability, T/C [5] was 82.8% and the viability, T/C [6] was 55.5%. For the same compound, the viability, T/C (second compound 1 µM, first compound 0.000316 µM) was 76.8%, the viability, T/C (second compound 1 µM, first compound 0.001 µM) was 87.3% and the viability, T/C (second compound 1 µM, first compound 0.00316 µM) was 75.8%. It also gave a viability, T/C (second compound 1 µM, first compound 0.01 µM) of 76.7%, a viability, T/C [7] of 65.6% and a viability, T/C [8] of 60.6%. The viability, T/C (second compound 3.16 µM, first compound 0.000316 µM) was 74.9%, the viability, T/C (second compound 3.16 µM, first compound 0.001 µM) was 83.3% and the viability, T/C (second compound 3.16 µM, first compound 0.00316 µM) was 67.6%. It also gave a viability, T/C (second compound 3.16 µM, first compound 0.01 µM) of 84.2%, a viability, T/C [9] of 70.2% and a viability, T/C [10] of 47.8%. It also gave a viability, T/C (second compound 10 µM, first compound 0.000316 µM) of 76.8%, a viability, T/C (second compound 10 µM, first compound 0.001 µM) of 78% and a viability, T/C (second compound 10 µM, first compound 0.00316 µM) of 74.7%. The viability, T/C (second compound 10 µM, first compound 0.01 µM) was 70.5%, the viability, T/C [11] was 62.7% and the viability, T/C [12] was 54.1%.
Compound COc1cc(C2c3cc4c(cc3C(OC3OC5COC(C)OC5C(O)C3O)C3COC(=O)C23)OCO4)cc(OC)c1O (centres undefined) + Cc1cccc(N(C)C(=O)C2C(O)CCN2c2nc(C)cc(C(F)(F)F)c2C#N)c1 has an IC50 (second compound 0.0316 µM) of 1190 nM, an IC50 (second compound 0.1 µM) of 1230 nM and an IC50 (second compound 0.316 µM) of 914 nM. The IC50 (second compound 1 µM) was 1190 nM, the IC50 (second compound 3.16 µM) was 1040 nM and the IC50 (second compound 10 µM) was 577 nM. For the same compound, the viability, T/C [1] was 91.2%, the viability, T/C [2] was 71.9% and the viability, T/C (second compound 0.0316 µM, first compound 0.316 µM) was 82.6%. It also gave a viability, T/C (second compound 0.0316 µM, first compound 1 µM) of 56.5%, a viability, T/C (second compound 0.0316 µM, first compound 3.16 µM) of 12.7% and a viability, T/C (second compound 0.0316 µM, first compound 10 µM) of 8.66%. For the same compound, the viability, T/C [3] was 82.8%, the viability, T/C [4] was 83.6% and the viability, T/C (second compound 0.1 µM, first compound 0.316 µM) was 83.8%. For the same compound, the viability, T/C (second compound 0.1 µM, first compound 1 µM) was 58%, the viability, T/C (second compound 0.1 µM, first compound 3.16 µM) was 12.7% and the viability, T/C (second compound 0.1 µM, first compound 10 µM) was 9.6%. It also gave a viability, T/C [5] of 86%, a viability, T/C [6] of 82% and a viability, T/C (second compound 0.316 µM, first compound 0.316 µM) of 68.4%. It also gave a viability, T/C (second compound 0.316 µM, first compound 1 µM) of 52.9%, a viability, T/C (second compound 0.316 µM, first compound 3.16 µM) of 12% and a viability, T/C (second compound 0.316 µM, first compound 10 µM) of 9.6%. The viability, T/C [7] was 74.4%, the viability, T/C [8] was 84.9% and the viability, T/C (second compound 1 µM, first compound 0.316 µM) was 71.1%. The viability, T/C (second compound 1 µM, first compound 1 µM) was 57.1%, the viability, T/C (second compound 1 µM, first compound 3.16 µM) was 9.91% and the viability, T/C (second compound 1 µM, first compound 10 µM) was 11.1%. The viability, T/C [9] was 73.3%, the viability, T/C [10] was 80.9% and the viability, T/C (second compound 3.16 µM, first compound 0.316 µM) was 77.9%. It also gave a viability, T/C (second compound 3.16 µM, first compound 1 µM) of 51.4%, a viability, T/C (second compound 3.16 µM, first compound 3.16 µM) of 11% and a viability, T/C (second compound 3.16 µM, first compound 10 µM) of 13.6%. For the same compound, the viability, T/C [11] was 77.6%, the viability, T/C [12] was 75% and the viability, T/C (second compound 10 µM, first compound 0.316 µM) was 66.1%. The viability, T/C (second compound 10 µM, first compound 1 µM) was 35.5%, the viability, T/C (second compound 10 µM, first compound 3.16 µM) was 11.9% and the viability, T/C (second compound 10 µM, first compound 10 µM) was 11.2%.
